Assay results: US20260297092A1, “PYRAZOLOPYRIMIDINE DERIVATIVES AS INHIBITORS OF NLRP3” (Takeda Pharmaceutical Company Limited, priority 2023, published 2026)

Test system: NLRP3 inflammasome (IL-1β production in THP-1 cells)
Experiment: IL-1β TR-FRET Assay (percentage of inhibition at 300 nM, 6 μM or 10 μM)
Assay type: cell-based, human
Details: Homo sapiens, THP-1, 300 nM, LPS priming, ATP activation, read-out: IL-1β inhibitory rate at 300 nM (%)
Procedure: The biological activity of the compound of Formula 1 with respect to NLRP3 was determined using the following in vitro method.
IL-1β TR-FRET Assay (reported as percentage of inhibition at 300 nM, 6 μM or 10 μM)
Monocytic THP-1 cells (ATCC: TIB-202) were maintained in accordance with the provider's instructions in RPMI media (Life Technologies, Cat #A10491-01); RPMI was supplemented with 10% heat inactivated fetal bovine serum (Corning, Cat #35-010-CV). The cells were differentiated into macrophages by the addition of 25 ng/mL IFN-γ (PeproTech, Cat #AF-300-02-100UG) for 24 hours at 37° C./5% CO2. Media was exchanged with fresh media with no FBS, and the cells were treated with 50 ng/mL LPS (priming step) (LPS-EK: Invivogen, Cat #tlrl-peklps). The cells were plated at 20,000 cells per well in 384-well flat-bottom cell culture plates (FALCON, Cat #353962) and were incubated for 24 hours at 37° C./5% CO2. Compounds were serially diluted (half log or 5-fold dilutions) with DMSO and were finally diluted with Media with no FBS. The compounds were added to the cells in 384-well plates (added in 1:3) and then the plates were incubated for 30 minutes at 37° C./5% CO2. The NLRP3 inflammasome was activated with the addition of 20 mM ATP (Sigma Cat #A3377-25G) and the cells were incubated for 2 hours at 37° C./5% CO2. At the end of the incubation period, 30 μL supernatant was transferred to another 384-well plate and mixed on a plate shaker for 1 minute. The supernatant was mixed with HTRF Antibody (Human IL1 beta kit, Cisbio, 62HIL1BPEH) in assay plates (Greiner Bio-One, Cat #784075) and the assay plates were incubated in shading box at room temperature for 16-24 hours. HTRF signal was measured by EnVision (Perkinelmer) in accordance with the manufacturer's instructions.
The percentage of inhibition at 300 nM, 6 μM or 10 μM in the IL-1βTR-FRET assay was calculated by the following formula: Percentage of inhibition=[1−(HTRF signaltest−HTRF signalLow)/(HTRF signalHigh−HTRF signalLow)]*100, where HTRF signaltest is the HTRF signal in the well to which test compound is added, HTRF signalLow is the HTRF signal in the well to which 3 μM MCC-950 is added, and the HTRF signalHigh is the HTRF signal in the well to which DMSO is added.

SMILES	inhibition at 0.3 µM
CCCc1ccc(-n2nc3nc(OCC)[nH]c(=O)c3c2C)c(O)c1 [Example 80, 6-ethoxy-2-(2-hydroxy-4-propylphenyl)-3-methyl-2,5-dihydro-4H-pyrazolo[3,4-d]pyrimidin-4-one]	99%
COCCOc1nc2nn(-c3c(C)cc(C4CC4)cc3OC(F)F)cc2c(=O)[nH]1 [Example 225, 2-[4-cyclopropyl-2-(difluoromethoxy)-6-methylphenyl]-6-(2-methoxyethoxy)-2,5-dihydro-4H-pyrazolo[3,4-d]pyrimidin-4-one]	100%
Cc1ccc(-n2cc3c(=O)[nH]c(OCCCC(F)(F)F)nc3n2)c(C)c1 [Example 196, 2-(2,4-dimethylphenyl)-6-(4,4,4-trifluorobutoxy)-2,5-dihydro-4H-pyrazolo[3,4-d]pyrimidin-4-one]	55%
Cc1ccc(-n2cc3c(=O)[nH]c(O[C@H]4C[C@H](C#N)C4)nc3n2)c(C)c1 [Example 219, 3-{[2-(2,4-dimethylphenyl)-4-oxo-4,5-dihydro-2H-pyrazolo[3,4-d]pyrimidin-6-yl]oxy}cyclobutane-1-carbonitrile]	96%
Cc1nc2nn(-c3c(C)cc(C4CC4)cc3C)cc2c(=O)[nH]1 [Example 180, 2-(4-cyclopropyl-2,6-dimethylphenyl)-6-methyl-2,5-dihydro-4H-pyrazolo[3,4-d]pyrimidin-4-one]	99%

Same assay, conditions: Homo sapiens, THP-1, 6 μM, LPS priming, ATP activation, read-out: IL-1β inhibitory rate at 6 μM (%)

SMILES	inhibition at 6 µM
Cc1cc(C2CC2)cc(C)c1-n1cc2c(=O)[nH]c(C3=CCOCC3)nc2n1 [Example 307, 2-(4-cyclopropyl-2,6-dimethylphenyl)-6-(3,6-dihydro-2H-pyran-4-yl)-2,5-dihydro-4H-pyrazolo[3,4-d]pyrimidin-4-one]	108%
CO[C@H]1C[C@@H](Oc2nc3nn(-c4ccc(C)cc4C)cc3c(=O)[nH]2)C1 [Example 243, 2-(2,4-dimethylphenyl)-6-{[(1s,3s)-3-methoxycyclobutyl]oxy}-2,5-dihydro-4H-pyrazolo[3,4-d]pyrimidin-4-one]	100%
Cc1cc(Br)cc(C(F)F)c1-n1cc2c(=O)[nH]c(COC(F)F)nc2n1 [Example 279, 2-[4-bromo-2-(difluoromethyl)-6-methylphenyl]-6-[(difluoromethoxy)methyl]-2,5-dihydro-4H-pyrazolo[3,4-d]pyrimidin-4-one]	100%
Cc1c(Br)c(Br)cc(C(F)F)c1-n1cc2c(=O)[nH]c(COC(F)F)nc2n1 [Example 280, 2-[3,4-dibromo-6-(difluoromethyl)-2-methylphenyl]-6-[(difluoromethoxy)methyl]-2,5-dihydro-4H-pyrazolo[3,4-d]pyrimidin-4-one]	99%
Nc1ccc(-n2cc3c(=O)[nH]c(COC(F)F)nc3n2)c(C(F)F)c1 [Example 261, 2-[4-amino-2-(difluoromethyl)phenyl]-6-[(difluoromethoxy)methyl]-2,5-dihydro-4H-pyrazolo[3,4-d]pyrimidin-4-one]	80%
O=c1[nH]c(COC(F)F)nc2nn(-c3ccc(C4CC4)cc3C(F)F)cc12 [Example 271, 2-[4-cyclopropyl-2-(difluoromethyl)phenyl]-6-[(difluoromethoxy)methyl]-2,5-dihydro-4H-pyrazolo[3,4-d]pyrimidin-4-one]	102%
Cc1cc(C2CC2)cc(C)c1-n1cc2c(=O)[nH]c(CCO)nc2n1 [Example 276, 2-(4-cyclopropyl-2,6-dimethylphenyl)-6-(2-hydroxyethyl)-2,5-dihydro-4H-pyrazolo[3,4-d]pyrimidin-4-one]	99%
Cc1cc(C2CC2)cc(C)c1-n1cc2c(=O)[nH]c(-c3cc4n(n3)CCO4)nc2n1 [Example 270, 2-(4-cyclopropyl-2,6-dimethylphenyl)-6-(2,3-dihydropyrazolo[5,1-b][1,3]oxazol-6-yl)-2,5-dihydro-4H-pyrazolo[3,4-d]pyrimidin-4-one]	98%
